Measurements as given in the NIST ThermoML archive (doi:10.1016/j.jct.2015.08.014).
Numbers after ± are expanded uncertainties.

Experiment: xn = mol fraction of the nth substance listed
Settings: 303.15 K, 100 kPa, Liquid, Alternating current cell with electrodes

CCCC[N+]1(C)CCCC1.N#CN=C=[N-] [1-butyl-1-methylpyrrolidinium dicyanamide] + O=C1CCCO1
electrical conductivity (Frequency=0.00347222 MHz, x1 = 0.4985): 2.33 ± 0.024 S/m | electrical conductivity (Frequency=0.00347222 MHz, x1 = 0.6954): 1.912 ± 0.019 S/m | electrical conductivity (Frequency=0.00347222 MHz, x1 = 0.9013): 1.607 ± 0.016 S/m | electrical conductivity (Frequency=0.00347222 MHz, x1 = 1): 1.527 ± 0.015 S/m | electrical conductivity (Frequency=0.004 MHz, x1 = 0.0463): 1.58 ± 0.028 S/m | electrical conductivity (Frequency=0.004 MHz, x1 = 0.0987): 2.38 ± 0.03 S/m | electrical conductivity (Frequency=0.004 MHz, x1 = 0.1449): 2.71 ± 0.029 S/m | electrical conductivity (Frequency=0.004 MHz, x1 = 0.1859): 2.9 ± 0.029 S/m | electrical conductivity (Frequency=0.004 MHz, x1 = 0.2493): 2.85 ± 0.029 S/m | electrical conductivity (Frequency=0.004 MHz, x1 = 0.3029): 2.79 ± 0.028 S/m | electrical conductivity (Frequency=0.004 MHz, x1 = 0.3845): 2.618 ± 0.026 S/m | electrical conductivity (Frequency=0.004 MHz, x1 = 0.4985): 2.33 ± 0.024 S/m | electrical conductivity (Frequency=0.004 MHz, x1 = 0.6954): 1.912 ± 0.019 S/m | electrical conductivity (Frequency=0.004 MHz, x1 = 0.9013): 1.607 ± 0.016 S/m | electrical conductivity (Frequency=0.004 MHz, x1 = 1): 1.527 ± 0.015 S/m | electrical conductivity (Frequency=0.00446429 MHz, x1 = 0.0463): 1.58 ± 0.028 S/m | electrical conductivity (Frequency=0.00446429 MHz, x1 = 0.0987): 2.38 ± 0.03 S/m | electrical conductivity (Frequency=0.00446429 MHz, x1 = 0.1449): 2.71 ± 0.029 S/m | electrical conductivity (Frequency=0.00446429 MHz, x1 = 0.1859): 2.9 ± 0.029 S/m | electrical conductivity (Frequency=0.00446429 MHz, x1 = 0.2493): 2.85 ± 0.029 S/m | electrical conductivity (Frequency=0.00446429 MHz, x1 = 0.3029): 2.79 ± 0.028 S/m | electrical conductivity (Frequency=0.00446429 MHz, x1 = 0.3845): 2.618 ± 0.026 S/m | electrical conductivity (Frequency=0.00446429 MHz, x1 = 0.4985): 2.33 ± 0.024 S/m | electrical conductivity (Frequency=0.00446429 MHz, x1 = 0.6954): 1.912 ± 0.019 S/m | electrical conductivity (Frequency=0.00446429 MHz, x1 = 0.9013): 1.608 ± 0.016 S/m | electrical conductivity (Frequency=0.00446429 MHz, x1 = 1): 1.527 ± 0.015 S/m | electrical conductivity (Frequency=0.005 MHz, x1 = 0.0463): 1.58 ± 0.028 S/m | electrical conductivity (Frequency=0.005 MHz, x1 = 0.0987): 2.38 ± 0.03 S/m | electrical conductivity (Frequency=0.005 MHz, x1 = 0.1449): 2.71 ± 0.029 S/m | electrical conductivity (Frequency=0.005 MHz, x1 = 0.1859): 2.9 ± 0.029 S/m | electrical conductivity (Frequency=0.005 MHz, x1 = 0.2493): 2.85 ± 0.029 S/m | electrical conductivity (Frequency=0.005 MHz, x1 = 0.3029): 2.79 ± 0.028 S/m | electrical conductivity (Frequency=0.005 MHz, x1 = 0.3845): 2.618 ± 0.026 S/m | electrical conductivity (Frequency=0.005 MHz, x1 = 0.4985): 2.33 ± 0.024 S/m | electrical conductivity (Frequency=0.005 MHz, x1 = 0.6954): 1.912 ± 0.019 S/m | electrical conductivity (Frequency=0.005 MHz, x1 = 0.9013): 1.608 ± 0.016 S/m | electrical conductivity (Frequency=0.005 MHz, x1 = 1): 1.527 ± 0.015 S/m | electrical conductivity (Frequency=0.005454 MHz, x1 = 0.0463): 1.58 ± 0.028 S/m | electrical conductivity (Frequency=0.005454 MHz, x1 = 0.0987): 2.38 ± 0.03 S/m | electrical conductivity (Frequency=0.005454 MHz, x1 = 0.1449): 2.71 ± 0.029 S/m | electrical conductivity (Frequency=0.005454 MHz, x1 = 0.1859): 2.9 ± 0.029 S/m | electrical conductivity (Frequency=0.005454 MHz, x1 = 0.2493): 2.86 ± 0.029 S/m | electrical conductivity (Frequency=0.005454 MHz, x1 = 0.3029): 2.79 ± 0.028 S/m | electrical conductivity (Frequency=0.005454 MHz, x1 = 0.3845): 2.619 ± 0.026 S/m | electrical conductivity (Frequency=0.005454 MHz, x1 = 0.4985): 2.33 ± 0.024 S/m | electrical conductivity (Frequency=0.005454 MHz, x1 = 0.6954): 1.912 ± 0.019 S/m | electrical conductivity (Frequency=0.005454 MHz, x1 = 0.9013): 1.608 ± 0.016 S/m | electrical conductivity (Frequency=0.005454 MHz, x1 = 1): 1.527 ± 0.015 S/m | electrical conductivity (Frequency=0.006 MHz, x1 = 0.0463): 1.58 ± 0.028 S/m | electrical conductivity (Frequency=0.006 MHz, x1 = 0.0987): 2.38 ± 0.03 S/m | electrical conductivity (Frequency=0.006 MHz, x1 = 0.1449): 2.71 ± 0.029 S/m | electrical conductivity (Frequency=0.006 MHz, x1 = 0.1859): 2.9 ± 0.029 S/m | electrical conductivity (Frequency=0.006 MHz, x1 = 0.2493): 2.86 ± 0.029 S/m | electrical conductivity (Frequency=0.006 MHz, x1 = 0.3029): 2.79 ± 0.028 S/m | electrical conductivity (Frequency=0.006 MHz, x1 = 0.3845): 2.619 ± 0.026 S/m | electrical conductivity (Frequency=0.006 MHz, x1 = 0.4985): 2.33 ± 0.024 S/m | electrical conductivity (Frequency=0.006 MHz, x1 = 0.6954): 1.912 ± 0.019 S/m | electrical conductivity (Frequency=0.006 MHz, x1 = 0.9013): 1.608 ± 0.016 S/m | electrical conductivity (Frequency=0.006 MHz, x1 = 1): 1.527 ± 0.015 S/m | electrical conductivity (Frequency=0.00652174 MHz, x1 = 0.0463): 1.58 ± 0.028 S/m | electrical conductivity (Frequency=0.00652174 MHz, x1 = 0.0987): 2.38 ± 0.03 S/m | electrical conductivity (Frequency=0.00652174 MHz, x1 = 0.1449): 2.71 ± 0.029 S/m | electrical conductivity (Frequency=0.00652174 MHz, x1 = 0.1859): 2.9 ± 0.029 S/m | electrical conductivity (Frequency=0.00652174 MHz, x1 = 0.2493): 2.86 ± 0.029 S/m | electrical conductivity (Frequency=0.00652174 MHz, x1 = 0.3029): 2.79 ± 0.028 S/m | electrical conductivity (Frequency=0.00652174 MHz, x1 = 0.3845): 2.619 ± 0.026 S/m | electrical conductivity (Frequency=0.00652174 MHz, x1 = 0.4985): 2.33 ± 0.024 S/m | electrical conductivity (Frequency=0.00652174 MHz, x1 = 0.6954): 1.913 ± 0.019 S/m | electrical conductivity (Frequency=0.00652174 MHz, x1 = 0.9013): 1.608 ± 0.016 S/m | electrical conductivity (Frequency=0.00652174 MHz, x1 = 1): 1.527 ± 0.015 S/m | electrical conductivity (Frequency=0.00694444 MHz, x1 = 0.0463): 1.58 ± 0.028 S/m | electrical conductivity (Frequency=0.00694444 MHz, x1 = 0.0987): 2.38 ± 0.03 S/m | electrical conductivity (Frequency=0.00694444 MHz, x1 = 0.1449): 2.71 ± 0.029 S/m | electrical conductivity (Frequency=0.00694444 MHz, x1 = 0.1859): 2.901 ± 0.029 S/m | electrical conductivity (Frequency=0.00694444 MHz, x1 = 0.2493): 2.86 ± 0.029 S/m | electrical conductivity (Frequency=0.00694444 MHz, x1 = 0.3029): 2.79 ± 0.028 S/m | electrical conductivity (Frequency=0.00694444 MHz, x1 = 0.3845): 2.619 ± 0.026 S/m | electrical conductivity (Frequency=0.00694444 MHz, x1 = 0.4985): 2.33 ± 0.024 S/m | electrical conductivity (Frequency=0.00694444 MHz, x1 = 0.6954): 1.913 ± 0.019 S/m | electrical conductivity (Frequency=0.00694444 MHz, x1 = 0.9013): 1.608 ± 0.016 S/m | electrical conductivity (Frequency=0.00694444 MHz, x1 = 1): 1.527 ± 0.015 S/m | electrical conductivity (Frequency=0.0075 MHz, x1 = 0.0463): 1.58 ± 0.028 S/m | electrical conductivity (Frequency=0.0075 MHz, x1 = 0.0987): 2.38 ± 0.03 S/m | electrical conductivity (Frequency=0.0075 MHz, x1 = 0.1449): 2.71 ± 0.029 S/m | electrical conductivity (Frequency=0.0075 MHz, x1 = 0.1859): 2.901 ± 0.029 S/m | electrical conductivity (Frequency=0.0075 MHz, x1 = 0.2493): 2.86 ± 0.029 S/m | electrical conductivity (Frequency=0.0075 MHz, x1 = 0.3029): 2.79 ± 0.028 S/m | electrical conductivity (Frequency=0.0075 MHz, x1 = 0.3845): 2.619 ± 0.026 S/m | electrical conductivity (Frequency=0.0075 MHz, x1 = 0.4985): 2.33 ± 0.024 S/m | electrical conductivity (Frequency=0.0075 MHz, x1 = 0.6954): 1.913 ± 0.019 S/m | electrical conductivity (Frequency=0.0075 MHz, x1 = 0.9013): 1.608 ± 0.016 S/m | electrical conductivity (Frequency=0.0075 MHz, x1 = 1): 1.527 ± 0.015 S/m | electrical conductivity (Frequency=0.008 MHz, x1 = 0.0463): 1.58 ± 0.028 S/m | electrical conductivity (Frequency=0.008 MHz, x1 = 0.0987): 2.38 ± 0.03 S/m | electrical conductivity (Frequency=0.008 MHz, x1 = 0.1449): 2.71 ± 0.029 S/m | electrical conductivity (Frequency=0.008 MHz, x1 = 0.1859): 2.902 ± 0.029 S/m | electrical conductivity (Frequency=0.008 MHz, x1 = 0.2493): 2.86 ± 0.029 S/m | electrical conductivity (Frequency=0.008 MHz, x1 = 0.3029): 2.79 ± 0.028 S/m | electrical conductivity (Frequency=0.008 MHz, x1 = 0.3845): 2.62 ± 0.026 S/m | electrical conductivity (Frequency=0.008 MHz, x1 = 0.4985): 2.33 ± 0.024 S/m | electrical conductivity (Frequency=0.008 MHz, x1 = 0.6954): 1.913 ± 0.019 S/m | electrical conductivity (Frequency=0.008 MHz, x1 = 0.9013): 1.608 ± 0.016 S/m | electrical conductivity (Frequency=0.008 MHz, x1 = 1): 1.527 ± 0.015 S/m | electrical conductivity (Frequency=0.00857143 MHz, x1 = 0.0463): 1.58 ± 0.028 S/m | electrical conductivity (Frequency=0.00857143 MHz, x1 = 0.0987): 2.38 ± 0.03 S/m | electrical conductivity (Frequency=0.00857143 MHz, x1 = 0.1449): 2.71 ± 0.029 S/m | electrical conductivity (Frequency=0.00857143 MHz, x1 = 0.1859): 2.902 ± 0.029 S/m
